Values joined by “and” are separate entries in the source; they are usually repeats but may differ in a detail not shown here. Equal values may be shown once.
B1: UMPS-7: sgRNA for UMPS exon 1, target sequence + PAM … TGG (SEQ ID NO: 5); gRNA SEQ ID NO: 1 (nucleic acid)
guide: GCCCCGCAGAUCGAUGUAGAGUUUUAGAGCUAGAAAUAGCAAGUUAAAAUAAGGCUAGUCCGUUAUCAACUUGAAAAAGUGGCACCGAGUCGGUGCUUUU
modifications: listed as RNA, chemistry not given here

How the values were obtained:
UMPS locus = test: InDel quantification by ICE and ICE-D in activated T cells; format: cell-based, human; details: for ICE InDels (%) / ICE-D InDels (%): Cas9 RNP electroporated into activated T cells, 4 days
From the text: sgRNAs were acquired with chemical modifications from Synthego Corporation. The sgRNAs were complexed with Cas9 protein (IDT) at a molar ration of 2.5:1 (sgRNA:protein) and electroporated into activated T cells using a 4D-NUCLEOFECTOR™ system (Lonza). 4 days later, cells were harvested, and genomic DNA extracted using QUICKEXTRACT™ DNA Extraction Kit (Epicentre) according to the manufacturer's protocol. The sgRNA target site was amplified with specific primers (Table 18) and the amplicon sequenced by Sanger sequencing (MCLab, South San Francisco).
InDel quantification was performed on the sequences using the interference of CRISPR edits (ICE) and ICE-D online tools (ice.synthego.com) (FIG. 5A).

[1] = test system: UMPS wild-type K562 cells; test: K562 xenograft model, bioluminescence imaging; format: in vivo, NSG mice; details: subcutaneous xenograft, normal or UTA supplemented food
From the text: (§1) For the K562 xenograft assay, 6 to 12 weeks old male NOD SCID gamma mouse (NSG) mice were transplanted with 1×10^6 K562 cells resuspended in […]® protein mixture (Corning, Inc.) 1:1 diluted with PBS under anesthesia. All animals were kept and handled according to institutional guidelines and the experimental protocol was approved by Stanford University's Administrative Panel on Laboratory Animal Care.
(§2) The previously engineered UMPS^KO/KO K562 cell line expressing firefly luciferase (FLuc) was used in a xenograft model in NSG mice. […] Cas9 RNP is targeted to exon 1 of the HBB locus with a guide RNA and a DNA donor template transduced by rAAV6 which carries a FLuc-2A-GFP-polyA cassette under control of the SFFV promoter. FACS analysis was performed four days after targeting of K562 cells to evaluate GFP expression before sorting of the GFP+ population. In a control group administered the AAV only, 1.61% of the cells were GFP+, and […].
(§3) UTA was acquired from Accela ChemBio Inc. and added to make the 8% (w/w) to Teklad mouse food (Envigo) and the food irradiated before use. […]
(§4) UMPS^KO/KO K562 cells or control cells were transplanted subcutaneously and observed weekly with bioluminescence imaging. Luminescence imaging of K562 cells was performed 5 minutes after intraperitoneal (ip) injection of 125 mg/kg D-Luciferin (PerkinElmer) on an IVIS Spectrum imaging system (PerkinElmer). […]

UMPS^KO/KO K562 cells = test: K562 xenograft model, bioluminescence imaging; format: in vivo, NSG mice; details: subcutaneous xenograft, food with 8% UTA vs food without UTA
From the text: as §1, §2, §3, §4

[2] = test system: UMPS^KO/KO engineered hES cells; test: Teratoma formation from engineered hES cells; format: in vivo, NSG mice
Procedure: To determine whether the safety switch can eradicate teratomas that originate from pluripotent cells, iPSCs or ES cells that were genetically modified (or control cells) were transplanted into mice. The cells expressed luciferase for in vivo detection. 1×10^6 UMPS-engineered hESCs were resuspended in a 100 μl of […]® protein mixture (Corning, Inc.) and PBS mixture and injected into the gastrocnemius muscle of the right hind leg of anesthetized NSG mice. The mice were followed up for tumor formation by tumor size measurement and by bioluminescence imaging. After establishment of tumors, whether withdrawal of Uridine triacetate (UTA) led to tumor regression was tested. At the endpoint (tumor sizes above 1.7 cm or impairment of mouse activity, otherwise 24 weeks) tumor was explanted and fixated for histological analysis.
Auxotrophic cell proliferation of the UMPS^KO/KO engineered hES cells in vivo was also analyzed. […] Bone marrow is analyzed at the time that the animal dies or is sacrificed (latest 16 weeks after injection). […] Groups were compared by statistical tests as indicated using Prism 7 (GraphPad).

[3] = cited from earlier work

| Molecule | ICE InDels (%) (UMPS locus) | ICE-D InDels (%) (UMPS locus) | tumor burden of UMPS wild-type K562 cells [1] | luminescence of UMPS^KO/KO K562-derived tumors (UMPS^KO/KO K562 cells) | Teratoma weight, Weight [g] ([2]; NSG mice fed 8% (w/w) UTA food, 7 weeks after cell injection into hind leg, per mouse) | teratoma formation ([2]; mice fed with UTA, 7 weeks after cell injection) | increase of uridine serum levels ([3]; humans and mouse models, administration of prodrug) | tolerability ([3]; mice, food enriched with 8% (w/w) UTA) | type of edits created (UMPS locus; detectable by ICE-D but not by ICE or TIDE) | frequency of InDels in initial screening (UMPS locus; initial sgRNA screening) |
| --- | --- | --- | --- | --- | --- | --- | --- | --- | --- | --- |
| UMPS-6: sgRNA for UMPS exon 1, target sequence + PAM GGCGGTCGCTCGTGCAGCTT TGG (SEQ ID NO: 6) (guide GGCGGTCGCTCGTGCAGCTTTGG; listed as DNA, chemistry not given here; the letters are possibly those of the target site; listed as Homo sapiens) | 12% | 11% |  |  |  |  |  |  |  |  |
| UMPS-3: sgRNA for UMPS exon 1, target sequence + PAM CCCCGCAGATCGATGTAGAT GGG (SEQ ID NO: 4) (guide CCCCGCAGATCGATGTAGATGGG; target sequence plus PAM, further chemistry not given here; listed as Homo sapiens) | 45% | 43% |  |  |  |  |  |  |  |  |
| CC(=O)OC[C@H]1O[C@@H](n2ccc(=O)[nH]c2=O)[C@H](OC(C)=O)[C@@H]1OC(C)=O [UTA, uridine triacetate] |  |  | increase in tumor burden | only increased in the mice fed with 8% UTA | 3.11 g and 0.033 g and 2.92 g and 1.54 g and 0.937 g | large teratomas | greater than 10 fold | well tolerated |  |  |
| B1 | 39% | 93% |  |  |  |  |  |  | high proportion of large (greater than 30 bp) deletions | highest frequency of InDels |

From patent US20210052741A1, “GENE THERAPY METHODS AND COMPOSITIONS USING AUXOTROPHIC REGULATABLE CELLS” (AUXOLYTIC LTD, priority 2018, published 2021)
